Measurements taken from ChEMBL document CHEMBL1629464, “Aldehyde oxidase: an enzyme of emerging importance in drug discovery” (J Med Chem, 2010).

What was measured:
Aldehyde oxidase 1 [1] = molecular target: T1, Aldehyde oxidase 1 (Rattus norvegicus, UniProt Q9Z0U5); experiment: Inhibition of rat aldehyde oxidase
T1 sequence (Q9Z0U5 whole entry): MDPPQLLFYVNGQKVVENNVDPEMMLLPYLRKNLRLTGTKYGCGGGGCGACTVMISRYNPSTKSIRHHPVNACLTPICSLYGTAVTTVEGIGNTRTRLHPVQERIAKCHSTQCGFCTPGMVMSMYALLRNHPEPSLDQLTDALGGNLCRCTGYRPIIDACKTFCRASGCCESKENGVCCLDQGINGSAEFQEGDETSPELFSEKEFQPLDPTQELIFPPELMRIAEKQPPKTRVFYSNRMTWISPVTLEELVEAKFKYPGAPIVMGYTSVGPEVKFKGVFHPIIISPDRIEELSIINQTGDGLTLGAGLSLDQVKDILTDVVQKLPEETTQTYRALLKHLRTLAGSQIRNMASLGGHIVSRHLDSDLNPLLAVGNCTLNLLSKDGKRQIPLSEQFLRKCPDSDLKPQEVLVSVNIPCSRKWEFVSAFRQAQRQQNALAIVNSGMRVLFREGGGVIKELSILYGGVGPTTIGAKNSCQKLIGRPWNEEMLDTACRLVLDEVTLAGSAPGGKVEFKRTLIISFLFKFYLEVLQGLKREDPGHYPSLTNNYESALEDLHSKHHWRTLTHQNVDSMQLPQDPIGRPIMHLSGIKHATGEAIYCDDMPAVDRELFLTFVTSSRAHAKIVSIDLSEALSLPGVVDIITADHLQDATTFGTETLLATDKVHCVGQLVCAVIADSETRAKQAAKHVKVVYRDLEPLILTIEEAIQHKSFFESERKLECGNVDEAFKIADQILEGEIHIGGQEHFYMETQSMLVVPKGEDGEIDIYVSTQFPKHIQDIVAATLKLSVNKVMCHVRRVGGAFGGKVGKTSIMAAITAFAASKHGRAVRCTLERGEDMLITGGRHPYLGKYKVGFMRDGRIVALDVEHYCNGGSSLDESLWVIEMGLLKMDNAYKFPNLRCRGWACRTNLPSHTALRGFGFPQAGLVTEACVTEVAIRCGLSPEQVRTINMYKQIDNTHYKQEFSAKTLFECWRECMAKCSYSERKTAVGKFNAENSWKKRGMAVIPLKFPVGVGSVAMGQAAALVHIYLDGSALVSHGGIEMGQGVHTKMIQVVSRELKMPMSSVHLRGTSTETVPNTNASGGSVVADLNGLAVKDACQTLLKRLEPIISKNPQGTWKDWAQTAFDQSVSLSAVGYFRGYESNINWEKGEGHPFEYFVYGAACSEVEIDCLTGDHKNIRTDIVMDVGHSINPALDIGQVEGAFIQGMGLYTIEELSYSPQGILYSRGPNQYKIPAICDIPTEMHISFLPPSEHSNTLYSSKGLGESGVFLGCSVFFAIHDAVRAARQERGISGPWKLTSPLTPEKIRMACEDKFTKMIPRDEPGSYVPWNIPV

Aldehyde oxidase 1 [2] = molecular target: T2, Aldehyde oxidase 1 (Macaca fascicularis, UniProt Q5FB27); experiment: Inhibition of monkey aldehyde oxidase
T2 sequence (Q5FB27 whole entry): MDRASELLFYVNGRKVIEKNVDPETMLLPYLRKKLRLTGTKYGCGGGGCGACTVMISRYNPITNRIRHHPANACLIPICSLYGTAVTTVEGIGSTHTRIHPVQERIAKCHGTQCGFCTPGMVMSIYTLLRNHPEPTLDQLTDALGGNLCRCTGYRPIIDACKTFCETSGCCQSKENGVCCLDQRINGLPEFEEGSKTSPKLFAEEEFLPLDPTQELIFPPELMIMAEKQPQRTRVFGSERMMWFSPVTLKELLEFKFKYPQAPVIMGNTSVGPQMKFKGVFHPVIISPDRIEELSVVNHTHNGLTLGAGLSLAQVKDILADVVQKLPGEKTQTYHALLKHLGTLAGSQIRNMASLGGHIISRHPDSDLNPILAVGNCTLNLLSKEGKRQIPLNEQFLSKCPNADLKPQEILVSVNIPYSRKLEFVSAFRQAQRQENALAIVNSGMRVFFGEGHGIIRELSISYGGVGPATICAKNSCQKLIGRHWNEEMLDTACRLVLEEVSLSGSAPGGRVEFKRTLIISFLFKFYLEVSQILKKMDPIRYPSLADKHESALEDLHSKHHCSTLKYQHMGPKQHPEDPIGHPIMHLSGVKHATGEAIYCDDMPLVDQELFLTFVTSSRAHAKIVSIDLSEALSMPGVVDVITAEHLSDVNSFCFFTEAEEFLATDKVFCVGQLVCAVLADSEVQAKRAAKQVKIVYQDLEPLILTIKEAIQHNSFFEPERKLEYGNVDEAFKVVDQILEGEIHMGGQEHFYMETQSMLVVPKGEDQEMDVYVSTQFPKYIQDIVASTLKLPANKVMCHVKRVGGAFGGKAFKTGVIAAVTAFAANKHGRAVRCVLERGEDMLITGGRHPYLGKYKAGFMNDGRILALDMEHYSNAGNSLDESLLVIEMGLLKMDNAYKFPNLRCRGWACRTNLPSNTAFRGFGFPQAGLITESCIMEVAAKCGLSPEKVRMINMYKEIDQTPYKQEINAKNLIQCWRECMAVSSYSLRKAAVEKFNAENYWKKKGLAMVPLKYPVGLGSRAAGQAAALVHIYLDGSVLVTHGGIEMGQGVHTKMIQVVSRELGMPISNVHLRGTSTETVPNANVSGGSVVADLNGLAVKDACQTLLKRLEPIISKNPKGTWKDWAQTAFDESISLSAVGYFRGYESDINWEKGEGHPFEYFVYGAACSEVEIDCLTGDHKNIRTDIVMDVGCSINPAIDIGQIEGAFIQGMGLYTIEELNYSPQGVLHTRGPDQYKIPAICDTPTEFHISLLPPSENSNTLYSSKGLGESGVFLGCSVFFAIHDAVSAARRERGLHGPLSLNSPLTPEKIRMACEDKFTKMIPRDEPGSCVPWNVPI

IC50 (Aldehyde oxidase 1 [1]) [µM] | Compound | Ki (Aldehyde oxidase 1 [1]) [µM] | IC50 (Aldehyde oxidase 1 [2]) [µM]
– | C[C@]12CC[C@@H]3c4ccc(O)cc4CC[C@H]3[C@@H]1CC[C@@H]2O [ESTRADIOL] | 3 | 12
0.74 | OCCN1CCN(CCCN2c3ccccc3Sc3ccc(Cl)cc32)CC1 [PERPHENAZINE] | – | 3.6
